According to patent publication US4312870A, “Pyrazoloquinolines” (Ciba-Geigy Corporation, priority 1980, dated 1982):

Molecular target: Diazepam Receptor
Experiment: Diazepam Receptor Binding Assay in vitro (tritiated diazepam, rat fore-brain membranes)
Conditions: membranes from rat fore-brain, 0°-5°, pH=7.5, determined graphically; read-out: IC50, concentration required to inhibit the specific binding of 2 nM of tritiated diazepam by 50%
Method: The anxiolytic effects of said new compounds can also be estimated by the Diazepam Receptor Binding Assay in vitro, e.g. as described in Nature 266, 732 (1977) or Proc. Nat. Acad. Sci. USA 74, 3805 (1977). Diazepam binds specifically and with high affinity to crude synaptosomal membrane preparations from rat fore-brain. […] When tritiated diazepam is used, the interaction of other drugs with said receptor can be readily assessed thus: Membranes from rat fore-brain are incubated at 0°-5° with tritiated diazepam and various concentrations of the test substances in a physiological medium at the pH=7.5. The membranes, containing the receptors with various amounts of tritiated diazepam, are filtered onto glass fiber filters, which are then […] in a liquid scintillation counter.

Compound `CNC1=Nc2ccc(Cl)cc2C(c2ccccc2)=[N+]([O-])C1` [chlordiazepoxide] has an IC50 of 400 nM.
`CN1C(=O)CN=C(c2ccccc2)c2cc(Cl)ccc21` [diazepam] was tested, and the IC50 was 5 nM.
